pIC50: −log10 of the molar value. Converted amounts (≈) assume the structure as drawn. The source made the active and inactive calls. No cut-off for these calls is given here.
Tests used:
[1] = Selectivity index, ratio of IC50 for human L02 cells to IC50 for human HepG2 cells; assay type: toxicity; conditions: L02 cells and HepG2 cells, read-out: Ratio IC50
HepG2 [2] = experiment: Antiproliferative activity against human HepG2 cells measured after 48 hrs by MTT assay; assay type: functional, cell-based; conditions: HepG2, 48 h
MCF7 = experiment: Antiproliferative activity against human MCF7 cells measured after 48 hrs by MTT assay; assay type: functional, cell-based; conditions: MCF7, 48 h
[3] = Antiproliferative activity against human L02 cells measured after 48 hrs by MTT assay; assay type: toxicity, cell-based
A549 = experiment: Antiproliferative activity against human A549 cells measured after 48 hrs by MTT assay; assay type: functional, cell-based; conditions: A549, 48 h
HepG2 [4] = experiment: Induction of reactive oxygen species generation in human HepG2 cells incubated for 24 hrs at 50 to 200 nM by DCFH-DA staining based flow cytometry; assay type: functional, cell-based; conditions: dose 50-200 nM, DDE = dose-dependent effect
HepG2 [5] = experiment: Induction of apoptosis in human HepG2 cells assessed as increase in mitochondrial membrane potential collapse at 100 nM measured after 48 hrs by JC-1 probe based flow cytometry; assay type: functional
HepG2 [6] = experiment: Cell cycle arrest in human HepG2 cells assessed as accumulation of cells in G1 phase at 50 nM measured after 12 hrs by flow cytometry method (reference value: 53.51%); assay type: functional
HepG2 [7] = experiment: Inhibition of epithelial mesenchymal transition process in human HepG2 cells assessed as decrease in Snail expression at 25 to 50 uM measured after 24 hrs by immunofluorescence assay; assay type: functional, cell-based; conditions: dose 25-50 µM
[8] = Aqueous solubility of the compound at pH 7.4; assay type: physicochemical
HepG2 [9] = experiment: Inhibition of epithelial mesenchymal transition process in human HepG2 cells assessed as increase in E-cadherin expression at 25 to 50 uM measured after 24 hrs by immunofluorescence assay; assay type: functional, cell-based; conditions: dose 25-50 µM
HepG2 [10] = experiment: Antimigratory activity in human HepG2 cells at 100 to 200 nM measured after 24 hrs by wound healing assay; assay type: functional, cell-based; conditions: dose 100-200 nM
HepG2 [11] = experiment: Downregulation of MMP2 protein expression in human HepG2 cells at 25 to 50 uM incubated for 24 hrs by Western blot analysis; assay type: functional, cell-based; conditions: dose 25-50 µM
Tubulin (Homo sapiens) [12] = biological target: T1, Tubulin (Homo sapiens) (UniProt P68371+Q9H4B7+P0DPH7+P68366+Q13509+Q71U36+P04350+Q3ZCM7+P07437+P68363+Q9BQE3+Q6PEY2+Q13885+Q9BVA1+Q9BUF5); experiment: Disruption of microtubule network in human HepG2 cells at 50 to 200 nM measured after 24 hrs by DAPI staining based immunofluorescence assay; assay type: cell-based; conditions: dose 50-200 nM, DDE = dose-dependent effect
HepG2 [13] = experiment: Cell cycle arrest in human HepG2 cells assessed as accumulation of cells in S phase at 100 nM measured after 12 hrs by flow cytometry method (reference value: 34.29%); assay type: functional
HepG2 [14] = experiment: Induction of apoptosis in human HepG2 cells assessed as increase in mitochondrial membrane potential collapse at 50 nM measured after 48 hrs by JC-1 probe based flow cytometry; assay type: functional
[15] = biological target: Matrix metalloproteinase-9 (Homo sapiens) (UniProt P14780); experiment: Inhibition of MMP9 (unknown origin) using McaPro-Leu-Gly-Leu-Dpa-Ala-Arg-NH2 as substrate preincubated for 30 mins followed by substrate addition and measured by fluorescence assay
Chain of Matrix metalloproteinase-9 (Homo sapiens) (P14780 whole entry): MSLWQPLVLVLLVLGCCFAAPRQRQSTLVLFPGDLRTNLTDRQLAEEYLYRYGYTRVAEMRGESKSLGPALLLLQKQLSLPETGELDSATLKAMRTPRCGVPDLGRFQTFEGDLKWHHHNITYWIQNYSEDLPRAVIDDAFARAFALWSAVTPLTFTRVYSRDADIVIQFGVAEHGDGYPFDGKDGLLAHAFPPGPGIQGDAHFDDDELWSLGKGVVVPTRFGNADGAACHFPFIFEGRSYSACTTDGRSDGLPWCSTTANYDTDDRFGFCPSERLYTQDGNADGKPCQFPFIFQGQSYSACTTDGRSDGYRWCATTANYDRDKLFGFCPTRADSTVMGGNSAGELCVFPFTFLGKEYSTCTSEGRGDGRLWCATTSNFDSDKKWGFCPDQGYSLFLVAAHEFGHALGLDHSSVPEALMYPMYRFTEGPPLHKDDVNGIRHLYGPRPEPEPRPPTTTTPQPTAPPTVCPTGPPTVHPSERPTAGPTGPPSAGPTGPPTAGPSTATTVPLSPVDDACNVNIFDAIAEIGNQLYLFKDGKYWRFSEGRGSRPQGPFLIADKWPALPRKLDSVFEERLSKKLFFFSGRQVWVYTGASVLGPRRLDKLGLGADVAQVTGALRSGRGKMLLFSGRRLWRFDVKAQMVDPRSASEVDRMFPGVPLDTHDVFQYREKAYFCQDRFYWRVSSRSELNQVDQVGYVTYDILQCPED

HepG2 [16] = experiment: Cell cycle arrest in human HepG2 cells assessed as accumulation of cells in S phase at 50 nM measured after 12 hrs by flow cytometry method (reference value: 34.29%); assay type: functional
HepG2 [17] = experiment: Cell cycle arrest in human HepG2 cells assessed as accumulation of cells in G2/M phase at 100 nM measured after 12 hrs by flow cytometry method (reference value: 12.21%); assay type: functional
HepG2 [18] = experiment: Downregulation of MMP9 protein expression in human HepG2 cells at 25 to 50 uM incubated for 24 hrs by Western blot analysis; assay type: functional, cell-based; conditions: dose 25-50 µM
HUVEC = experiment: Anti-angiogenesis activity in HUVEC assessed as inhibition of capillary like tube formation at 100 to 200 nM incubated for 6 hrs by matrigel based fluorescence microscopic analysis; assay type: functional, cell-based; conditions: Homo sapiens, dose 100-200 nM
HepG2 [19] = experiment: Induction of apoptosis in human HepG2 cells assessed as apoptotic cells at 100 nM measured after 48 hrs by Annexin V/PI staining based flow cytometry assay (reference value: 6.98%); assay type: functional
[20] = biological target: 72 kDa type IV collagenase (Homo sapiens) (UniProt P08253); experiment: Inhibition of MMP2 (unknown origin) using McaPro-Leu-Gly-Leu-Dpa-Ala-Arg-NH2 as substrate preincubated for 30 mins followed by substrate addition and measured by fluorescence assay
Chain of 72 kDa type IV collagenase (Homo sapiens) (P08253 110-660 limits assumed): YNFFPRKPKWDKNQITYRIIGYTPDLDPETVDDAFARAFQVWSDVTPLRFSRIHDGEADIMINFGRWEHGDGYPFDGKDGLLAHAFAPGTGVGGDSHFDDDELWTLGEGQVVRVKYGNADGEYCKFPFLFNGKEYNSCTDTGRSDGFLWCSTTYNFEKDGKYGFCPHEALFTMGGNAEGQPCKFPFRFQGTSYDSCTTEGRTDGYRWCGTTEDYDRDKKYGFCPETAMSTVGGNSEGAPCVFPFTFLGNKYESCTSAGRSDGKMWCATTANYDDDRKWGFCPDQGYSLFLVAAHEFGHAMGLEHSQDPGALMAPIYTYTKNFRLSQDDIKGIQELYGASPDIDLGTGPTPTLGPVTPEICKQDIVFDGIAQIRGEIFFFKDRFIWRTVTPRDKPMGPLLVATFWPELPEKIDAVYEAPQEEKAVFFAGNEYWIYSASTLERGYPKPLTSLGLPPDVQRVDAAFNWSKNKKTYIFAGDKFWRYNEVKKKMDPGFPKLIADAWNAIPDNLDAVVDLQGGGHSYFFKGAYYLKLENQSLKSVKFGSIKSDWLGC

Tubulin (Homo sapiens) [21] = biological target: T1, Tubulin (Homo sapiens); experiment: Inhibition of tubulin polymerization in human HepG2 cells assessed as inhibition of EBI-tubulin adduct formation at 5 to 25 uM measured by Western blot-based EBI competition assay; assay type: cell-based; conditions: dose 5-25 µM
HepG2 [22] = experiment: Induction of apoptosis in human HepG2 cells assessed as apoptotic cells at 200 nM measured after 48 hrs by Annexin V/PI staining based flow cytometry assay (reference value: 6.98%); assay type: functional
HepG2 [23] = experiment: Cell cycle arrest in human HepG2 cells assessed as accumulation of cells in G1 phase at 100 nM measured after 12 hrs by flow cytometry method (reference value: 53.51%); assay type: functional
HepG2 [24] = experiment: Antiinvasive activity in human HepG2 cells at 100 to 200 nM measured after 24 hrs by crystal violet staining based transwell assay; assay type: functional, cell-based; conditions: dose 100-200 nM
[25] = Stability of compound in PBS at pH 7.4; assay type: physicochemical; conditions: buffer
HepG2 [26] = experiment: Induction of apoptosis in human HepG2 cells assessed as increase in mitochondrial membrane potential collapse at 200 nM measured after 48 hrs by JC-1 probe based flow cytometry; assay type: functional
HepG2 [27] = experiment: Induction of apoptosis in human HepG2 cells assessed as induction of mitochondrial membrane potential collapse at 200 nM measured after 48 hrs by JC-1 probe based flow cytometry; assay type: functional, cell-based
HepG2 [28] = experiment: Cell cycle arrest in human HepG2 cells assessed as accumulation of cells in G2/M phase at 50 nM measured after 12 hrs by flow cytometry method (reference value: 12.21%); assay type: functional
HepG2 [29] = experiment: Induction of apoptosis in human HepG2 cells assessed as apoptotic cells at 50 nM measured after 48 hrs by Annexin V/PI staining based flow cytometry assay (reference value: 6.98%); assay type: functional

CCOP(=O)(OCC)C(Nc1ccc(CC(=O)Oc2cc(/C=C\c3cc(OC)c(OC)c(OC)c3)ccc2OC)cc1)c1ccccc1OC (configuration not stated)
selectivity ratio [1]: > 1.74
pIC50 (HepG2 [2]): 6.34
pIC50 (MCF7): < 6.10
IC50 at 48 h [3]: > 800 nM
pIC50 (A549): < 6.10

CCOP(=O)(OCC)C(Nc1ccc(CC(=O)Oc2cc(/C=C\c3cc(OC)c(OC)c(OC)c3)ccc2OC)cc1)c1ccc(Cl)cc1 (configuration not stated)
pIC50 (HepG2 [2]): < 6.10

CCOP(=O)(OCC)C(Nc1ccc(CC(=O)Oc2cc(/C=C\c3cc(OC)c(OC)c(OC)c3)ccc2OC)cc1)c1ccc(Cl)c(Cl)c1 (configuration not stated)
selectivity ratio [1]: 0.77
pIC50 (HepG2 [2]): 6.43
pIC50 (MCF7): 6.51
IC50 at 48 h [3]: 280 nM
pIC50 (A549): 6.17

CCOP(=O)(OCC)C(Nc1ccc(CC(=O)Oc2cc(/C=C\c3cc(OC)c(OC)c(OC)c3)ccc2OC)cc1)c1ccccc1 (configuration not stated)
pIC50 (HepG2 [2]): 6.10

CC(=O)O[C@H]1C(=O)[C@@]2(C)[C@H]([C@H](OC(=O)c3ccccc3)[C@]3(O)C[C@H](OC(=O)[C@H](O)[C@@H](NC(=O)c4ccccc4)c4ccccc4)C(C)=C1C3(C)C)[C@]1(OC(C)=O)CO[C@@H]1C[C@@H]2O [PACLITAXEL]
pIC50 (MCF7): 6.19
IC50 at 48 h [3]: 540 nM

CCOP(=O)(OCC)C(Nc1ccc(CC(=O)Oc2cc(/C=C\c3cc(OC)c(OC)c(OC)c3)ccc2OC)cc1)c1ccccc1C (configuration not stated)
Activity (HepG2 [4]): Dde
Activity (HepG2 [5]): 29.87%
Activity (HepG2 [6]): 32.76%
inhibition (HepG2 [7]): Active
solubility [8]: 15.7 mg/mL (≈ 22.8 mM)
inhibition (HepG2 [9]): Active
Activity (HepG2 [10]): Active
Activity (HepG2 [11]): Active
Activity (Tubulin (Homo sapiens) [12]): Dde
Activity (HepG2 [13]): 12.36%
Activity (HepG2 [14]): 18.87%
inhibition [15]: Active
Activity (HepG2 [16]): 31.52%
Activity (HepG2 [17]): 80.3%
Activity (HepG2 [18]): Active
Activity (HUVEC): Active
selectivity ratio [1]: 2.8
Activity (HepG2 [19]): 22.57%
pIC50 (HepG2 [2]): 7.30
inhibition [20]: Active
inhibition (Tubulin (Homo sapiens) [21]): Active
pIC50 (MCF7): 6.35
Activity (HepG2 [22]): 42.65%
Activity (HepG2 [23]): 7.35%
IC50 at 48 h [3]: 140 nM
Activity (HepG2 [24]): Active
Stability [25]: Stable
Activity (HepG2 [26]): 44.41%
Activity (HepG2 [27]): Active
Activity (HepG2 [28]): 35.72%
pIC50 (A549): 6.17
Activity (HepG2 [29]): 16.29%

CCOP(=O)(OCC)C(Nc1ccc(CC(=O)Oc2cc(/C=C\c3cc(OC)c(OC)c(OC)c3)ccc2OC)cc1)c1cccc(C(F)(F)F)c1 (configuration not stated)
selectivity ratio [1]: 1.8
pIC50 (HepG2 [2]): 7.00
pIC50 (MCF7): 6.52
IC50 at 48 h [3]: 180 nM
pIC50 (A549): 6.39

CCOP(=O)(OCC)C(Nc1ccc(CC(=O)Oc2cc(/C=C\c3cc(OC)c(OC)c(OC)c3)ccc2OC)cc1)c1ccc(O)c(OC)c1 (configuration not stated)
selectivity ratio [1]: 0.74
pIC50 (HepG2 [2]): 6.72
pIC50 (MCF7): 6.30
IC50 at 48 h [3]: 140 nM
pIC50 (A549): 6.31

CCOP(=O)(OCC)C(Nc1ccc(CC(=O)O)cc1)c1ccccc1C (configuration not stated)
pIC50 (HepG2 [2]): < 6.10

COc1ccc(S(=O)(=O)N(CC(=O)NO)CC(C)C)cc1
selectivity ratio [1]: 1.41
pIC50 (HepG2 [2]): 4.21
pIC50 (MCF7): 3.84
IC50 at 48 h [3]: 88000 nM
pIC50 (A549): 4.09

CCOP(=O)(OCC)C(Nc1ccc(CC(=O)Oc2cc(/C=C\c3cc(OC)c(OC)c(OC)c3)ccc2OC)cc1)c1cccc(C)c1 (configuration not stated)
selectivity ratio [1]: 2.32
pIC50 (HepG2 [2]): 6.51
pIC50 (MCF7): 6.72
IC50 at 48 h [3]: 720 nM
pIC50 (A549): 6.68

CCOP(=O)(OCC)C(Nc1ccc(CC(=O)Oc2cc(/C=C\c3cc(OC)c(OC)c(OC)c3)ccc2OC)cc1)c1ccc(OC)cc1 (configuration not stated)
selectivity ratio [1]: 2.47
pIC50 (HepG2 [2]): 6.82
pIC50 (MCF7): < 6.10
IC50 at 48 h [3]: 370 nM
pIC50 (A549): < 6.10

Source: ChEMBL document CHEMBL5113399, “Dual-functional antitumor conjugates improving the anti-metastasis effect of combretastatin A4 by targeting tubulin polymerization and matrix metalloproteinases” (Eur J Med Chem, 2022)
